Literature values in article PMC9284491 (Nature Communications, 2022).

Columns and labels:
ER = biological target: T1, ER (Homo sapiens, UniProt P03372); settings: maximum 500 mg dose; cited from earlier work
T1 sequence (P03372 1-595): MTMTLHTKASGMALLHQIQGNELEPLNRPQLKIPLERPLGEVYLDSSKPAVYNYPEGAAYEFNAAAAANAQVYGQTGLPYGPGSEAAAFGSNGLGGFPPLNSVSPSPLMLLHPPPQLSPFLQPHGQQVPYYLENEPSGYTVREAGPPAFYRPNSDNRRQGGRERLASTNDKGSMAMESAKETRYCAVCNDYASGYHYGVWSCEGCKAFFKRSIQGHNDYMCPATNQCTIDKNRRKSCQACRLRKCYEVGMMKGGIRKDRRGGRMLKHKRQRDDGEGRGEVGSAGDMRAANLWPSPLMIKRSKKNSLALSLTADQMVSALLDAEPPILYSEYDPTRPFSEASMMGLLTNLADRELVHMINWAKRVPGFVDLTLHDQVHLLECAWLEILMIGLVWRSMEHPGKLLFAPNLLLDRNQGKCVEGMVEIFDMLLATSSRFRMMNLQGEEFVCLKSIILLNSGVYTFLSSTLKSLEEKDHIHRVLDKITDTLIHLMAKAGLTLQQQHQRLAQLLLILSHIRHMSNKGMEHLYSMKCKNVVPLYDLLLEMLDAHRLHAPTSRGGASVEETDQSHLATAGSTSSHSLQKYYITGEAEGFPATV

[1] = 500 mg intramuscular (day 1, day 14 of cycle 1, monthly from cycle 2); cited from earlier work

## C[C@]12CC[C@@H]3c4ccc(O)cc4C[C@@H](CCCCCCCCC[S+]([O-])CCCC(F)(F)C(F)(F)F)[C@H]3[C@@H]1CC[C@@H]2O (some centres unmarked) [fulvestrant]
ER
  ER occupancy at maximum dose: does not fully occupy the ER
[1]
  Ctrough at steady state: 12.5 ng/mL
